Active and inactive are the calls of the source. The rule behind the calls is not given here.

Series [1] has as its system HeLa. Nature of the series: Induction of apoptosis in human HeLa cells assessed as viable cells at 30 uM incubated for 48 hrs by Annexin V/PI double staining base flow cytometry analysis (reference value: 82.3 %). Particulars: read-out: Activity. Format: functional. In general terms: Flow cytometry measures light scatter and fluorescence of single cells or particles in a stream.

Series [2] concerns HeLa. Nature of the series: Induction of apoptosis in human HeLa cells assessed as early apoptotic cells at 30 uM incubated for 48 hrs by Annexin V/PI double staining base flow cytometry analysis (reference value: 2.59 %). Format: functional.
Series [3] deals with HeLa. Nature of the series: Induction of apoptosis in human HeLa cells assessed as late apoptotic cells at 30 uM incubated for 24 hrs by Annexin V/PI double staining base flow cytometry analysis (reference value: 12.5 %). Format: functional.
The test system of series [4] is HeLa. Nature of the series: Induction of apoptosis in human HeLa cells assessed as late apoptotic cells at 30 uM incubated for 48 hrs by Annexin V/PI double staining base flow cytometry analysis (reference value: 12.5 %). Format: functional.
Series [5] has as its system HeLa. The series can be described thus: Induction of apoptosis in human HeLa cells assessed as necrotic cells at 30 uM incubated for 24 hrs by Annexin V/PI double staining base flow cytometry analysis (reference value: 2.65 %). Format: functional.
Series [6] is described as follows: Toxicity in human HeLa cells xenografted in BALB/c nude mouse assessed as change in body weight at 5 mg/kg, iv administered every 3 days for 15 days. Format: organism-based. As to conditions: in vivo, 360 h, time 15 day. On the technique in general: A xenograft is tissue or cells of one species grown in another, often human tumour cells in immunodeficient mice.

The subject of series [7] is HeLa. Nature of the series: Induction of apoptosis in human HeLa cells assessed as necrotic cells at 30 uM incubated for 48 hrs by Annexin V/PI double staining base flow cytometry analysis (reference value: 2.65 %). Format: functional.
The test system of series [8] is HeLa. Nature of the series: Induction of apoptosis in human HeLa cells assessed as viable cells at 30 uM incubated for 24 hrs by Annexin V/PI double staining base flow cytometry analysis (reference value: 82.3 %). The series is classed as functional. As to conditions: read-out: Activity.
Series [9] has as its system HeLa. The series can be described thus: Induction of apoptosis in human HeLa cells assessed as early apoptotic cells at 30 uM incubated for 24 hrs by Annexin V/PI double staining base flow cytometry analysis (reference value: 2.59 %). The series is classed as functional.
In series [10] the test system is HeLa. The series can be described thus: Antitumor activity against human HeLa cells xenografted in BALB/c nude mouse assessed as reduction in tumor volume at 5 mg/kg, iv administered every 3 days for 15 days. Format: functional, organism-based. Particulars: time 15.0 day.
Series [11] can be described thus: Toxicity in BALB/c nude mouse xenografted with human HeLa cells assessed as histological changes in spleen at 5 mg/kg, iv administered every 3 days for 15 days by H and E staining based microscopic analysis. Format: organism-based. Particulars: in vivo, 360 h, time 15 day.
The nature of series [12]: Toxicity in human HeLa cells xenografted in BALB/c nude mouse assessed as histological changes in liver at 5 mg/kg, iv administered every 3 days for 15 days by H and E staining based microscopic analysis. Format: organism-based. As to conditions: in vivo, 360 h, time 15 day.
Series [13] deals with HepG2. The series can be described thus: Antiproliferative activity against human HepG2 cells assessed as cell growth inhibition at 0.1 to 100 micromol/L measured after 48 hrs by MTT assay relative to control. The series is classed as functional, cell-based. As to conditions: dose 0.1-100 µmol/L. (In general: Tetrazolium dyes change colour on reduction, which living cells bring about.)

The nature of series [14]: Drug uptake in tumor of BALB/c nude mouse xenografted with human HeLa cells 10 uM, iv measured after 6 to 36 hrs by fluorescence imaging based IVIS optical imaging analysis. The series is classed as ADME, organism-based, Neoplasm. Particulars: in vivo, time 6-36 hrs.
Series [15] is described as follows: Toxicity in BALB/c nude mouse xenografted with human HeLa cells assessed as histological changes in kidney at 5 mg/kg, iv administered every 3 days for 15 days by H and E staining based microscopic analysis. Format: organism-based. Particulars: in vivo, 360 h, time 15 day.
The test system of series [16] is HeLa. The series can be described thus: Antiproliferative activity against human HeLa cells assessed as cell growth inhibition at 0.1 to 100 micromol/L measured after 24 hrs by MTT assay relative to control. As to conditions: dose 0.1-100 µmol/L. Format: cell-based.
Series [17] has as its system HEK-293T. The series can be described thus: Antiproliferative activity against human HEK293T cells assessed as cell growth inhibition at 0.1 to 100 micromol/L measured after 48 hrs by MTT assay relative to control. As to conditions: dose 0.1-100 µmol/L. The series is classed as cell-based.
The nature of series [18]: Drug uptake in tumor of BALB/c nude mouse xenografted with human HeLa cells 10 uM, iv measured after 24 hrs by fluorescence imaging based IVIS optical imaging analysis. Format: ADME, organism-based, Neoplasm. As to conditions: in vivo.
A short description of series [19]: Toxicity in human HeLa cells xenografted in BALB/c nude assessed as histological changes in heart at 5 mg/kg, iv administered every 3 days for 15 days by H and E staining based microscopic analysis. As to conditions: in vivo, 360 h, time 15 day. Format: organism-based.
In series [20] the test system is MCF7. Nature of the series: Antiproliferative activity against human MCF7 cells assessed as cell growth inhibition at 0.1 to 100 micromol/L measured after 48 hrs by MTT assay relative to control. Format: functional, cell-based. As to conditions: dose 0.1-100 µmol/L.
Series [21] deals with HeLa. The series can be described thus: Antiproliferative activity against human HeLa cells assessed as cell growth inhibition at 0.1 to 100 micromol/L measured after 48 hrs by MTT assay relative to control. Format: functional, cell-based. Particulars: dose 0.1-100 µmol/L.
A short description of series [22]: Prodrug activation in human HeLa cells assessed as increase in fluorescence at 10 uM within 6 hrs by confocal laser scanning microscopic method. Format: cell-based.
The nature of series [23]: GSH-mediated prodrug activation assessed as increase in fluorescence intensity at 10 uM measured at 525 nm emission in presence of 0 to 500 uM of GSH by UV-vis absorption spectroscopy.
Series [24] can be described thus: Prodrug activation in human HeLa cells assessed as increase in fluorescence at 10 uM within 6 hrs in the presence of N-ethylmalemide by confocal laser scanning microscopic method. The series is classed as cell-based.
Series [25] can be described thus: GSH-mediated prodrug activation assessed as increase in fluorescence intensity at 10 uM by UV-vis absorption spectroscopy.
Series [26] in a line: GSH-mediated prodrug activation assessed as increase in fluorescence intensity at 10 uM measured at pH 5 by real time fluorescence spectra. As to conditions: pH 5, 10 µM.
A short description of series [27]: GSH-mediated prodrug activation assessed as increase in fluorescence intensity at 10 uM measured up to 2 hrs by real time fluorescence spectra.
Series [28] deals with HepG2. Nature of the series: Antiproliferative activity against human HepG2 cells assessed as cell growth inhibition at 0.1 to 100 micromol/L measured after 24 hrs by MTT assay relative to control. The series is classed as functional, cell-based. As to conditions: dose 0.1-100 µmol/L.
Series [29] deals with HEK-293T. Nature of the series: Antiproliferative activity against human HEK293T cells assessed as cell growth inhibition at 0.1 to 100 micromol/L measured after 24 hrs by MTT assay relative to control. The series is classed as functional, cell-based. Particulars: dose 0.1-100 µmol/L.
The nature of series [30]: Toxicity in human HeLa cells xenografted in BALB/c nude assessed as histological changes in tumor at 5 mg/kg, iv administered every 3 days for 15 days by H and E staining based microscopic analysis. Format: organism-based. Particulars: in vivo, 360 h, time 15 day.
Series [31] deals with MCF7. Nature of the series: Antiproliferative activity against human MCF7 cells assessed as cell growth inhibition at 0.1 to 100 micromol/L measured after 24 hrs by MTT assay relative to control. As to conditions: dose 0.1-100 µmol/L. Format: functional, cell-based.

`CC(=O)O[C@H]1C(=O)[C@@]2(C)[C@H]([C@H](OC(=O)c3ccccc3)[C@]3(O)C[C@H](OC(=O)[C@H](O)[C@@H](NC(=O)c4ccccc4)c4ccccc4)C(C)=C1C3(C)C)[C@]1(OC(C)=O)CO[C@@H]1C[C@@H]2O` [PACLITAXEL]: the viability at 30 µM stood at 26.7% in the series with HeLa [1] and 52.4% in the series on HeLa [8]. Besides, the Activity in the series on HeLa [2] was 4.55%; in the series with HeLa [3], 34.7%; in the series on HeLa [4] it was 66.6%; in the series with HeLa [5], 2.24%; in series [6], “Non-Toxic”; in the series with HeLa [7] it was 2.12%. Besides, the Activity in the series on HeLa [9] is listed as 10.6%. For the same compound, the outcome in the series on HeLa [10] was Active.
Turning to `COc1ccc(OC(=O)CCCSSCCCC(=O)O[C@@H](C(=O)O[C@H]2C[C@@]3(O)[C@@H](OC(=O)c4ccccc4)[C@@H]4[C@]5(OC(C)=O)CO[C@@H]5C[C@H](O)[C@@]4(C)C(=O)[C@H](OC(C)=O)C(=C2C)C3(C)C)[C@@H](NC(=O)c2ccccc2)c2ccccc2)c(-c2nc3ccccc3s2)c1`, the figures for the viability at 30 µM in the series with HeLa [1] and in the series on HeLa [8] were 8.39% and 60.9%, respectively. Besides, the Activity result in series [11] was “Non-Toxic”; in series [12] it was “Non-Toxic”; in [15], “Non-Toxic”; in the series on HeLa [2], 14.4%; in the series on HeLa [16], “Toxic”; in the series on HEK-293T [17], “Toxic”. Also, the Activity in the series on HeLa [3] is given as 28.7%; in the series with HeLa [4], 72.4%; in the series on HeLa [5], 3.59%; in [19] it was “Non-Toxic”; in series [6], “Non-Toxic”; in the series on HeLa [7], 4.86%. Also, the values for the Activity (with HeLa [9]; in [30]) were 6.79% and “Non-Toxic”, respectively. Besides, the outcome in the series on HepG2 [13], with MCF7 [20], with HeLa [21], in the series with HepG2 [28], in the series on HEK-293T [29] and with HeLa [10] was Active. Besides, in the series with MCF7 [31], the outcome was Active. Further, the Drug uptake entry in series [14] and in series [18] was “Active” in each case. Also, the Drug metabolism entry in [22], in series [23], in series [24], in series [25], in [26] and in [27] was “Metabolite_Detected” throughout.
